# Experimental data reported in patent US20060134213A1 (priority 2004, published 2006).
# Test: Clinical single-dose crossover study: relative bioavailability and dose proportionality from plasma ramipril and ramiprilat, tablets vs ALTACE capsules
# Format: in vivo, human
# [1] = doses increased from 2.5 to 20 mg
# Experimental: The study followed a single-dose, open-label, four-period, four-treatment, crossover design and utilized a two-stage randomization process for 4 dose levels and 2 formulations. Each treatment was separated by a 2 week washout period. All treatments were administered following an overnight fast.
# Thirty subjects were planned to be enrolled in the study to complete 24.
# The ANOVA model included subject, period and formulation as fixed effects, and subject as a random effect. […] The ratios of LSM and CI were expressed as a percentage relative to the commercial capsules (ALTACE®).
# Separately for the test (A, C, E, and G) and reference (B, D, F, and H) formulations, dose proportionality was evaluated. […] The ANOVA model included period as a fixed effect, intercept as a random effect, and in-transformed dose as a covariate.
smiles,measurement,setting,value
C[C@H](N[C@@H](CCc1ccccc1)C(=O)O)C(=O)N1[C@H](C(=O)O)C[C@@H]2CCC[C@@H]21 [ramiprilat],increase of AUC0-24 with dose (geometric means),[1],proportional
same,increase of Cmax with dose (geometric means),[1],more than proportional increase
same,increase of AUC0-t and AUC0-48 with dose (geometric means),ramipril doses 2.5 to 20 mg,less than proportional increase
